Experiments:
Assay type in all cases: functional
Rattus norvegicus [1] = experiment: Anti-inflammatory activity in Rattus norvegicus Wistar (rat) assessed as inhibition of carrageenan-induced paw edema at 20 mg/kg, ip administered 30 min post carrageenan-challenge measured after 3 hr relative to control; conditions: route intraperitoneal
Mus musculus [2] = experiment: Anticonvulsant activity in Mus musculus albino (mouse) assessed as time of onset of PTZ-induced clonic convulsion at 25 mg/kg, po administered 30 min prior to PTZ-challenge (reference value: 61 secs)
Mus musculus [3] = experiment: Anticonvulsant activity in Mus musculus albino (mouse) assessed as protection against PTZ-induced clonic convulsion at 25 mg/kg, po administered 30 min prior to PTZ-challenge relative to control
Rattus norvegicus [4] = experiment: Anti-inflammatory activity in Rattus norvegicus Wistar (rat) assessed as inhibition of carrageenan-induced paw edema at 10 mg/kg, ip administered 30 min post carrageenan-challenge measured after 3 hr relative to control; conditions: route intraperitoneal

Row | SMILES | inhibition in vivo at 20 mg/kg (Rattus norvegicus [1]) [%] | Time (Mus musculus [2]) [s] | Activity (Mus musculus [3]) [%] | inhibition in vivo at 10 mg/kg (Rattus norvegicus [4]) [%]
1 | O=[N+]([O-])c1cccc(/C=N/C2Oc3ccccc3CC2c2noc(-c3cccc([N+](=O)[O-])c3)n2)c1 (stereo not given) | 40.9 | 60 | 100 | –
2 | Fc1ccc(Br)cc1/C=N/C1Oc2ccccc2CC1c1noc(-c2cc(Br)ccc2F)n1 (stereo not given) | – | 128 | 66.6 | –
3 | COc1cc(/C=N/C2Oc3ccccc3CC2c2noc(-c3ccc(O)c(OC)c3)n2)ccc1O (stereo not given) | 42.5 | 80 | 66.6 | –
4 | Brc1ccc(/C=N/C2Oc3ccccc3CC2c2noc(-c3ccc(Br)cc3)n2)cc1 (stereo not given) | – | 104 | 100 | –
5 | C(=N\C1Oc2ccccc2CC1c1noc(-c2nccs2)n1)/c1nccs1 (stereo not given) | 17.3 | 201 | 100 | –
6 | Fc1ccc(/C=N/C2Oc3ccccc3CC2c2noc(-c3ccc(F)c(Oc4ccccc4)c3)n2)cc1Oc1ccccc1 (stereo not given) | 37 | – | – | –
7 | Clc1ccccc1/C=N/C1Oc2ccccc2CC1c1noc(-c2ccccc2Cl)n1 (stereo not given) | 37 | 226 | 100 | –
8 | Clc1ccc(/C=N/C2Oc3ccccc3CC2c2noc(-c3ccc(Cl)cc3)n2)cc1 (stereo not given) | 26.8 | 218 | 100 | –
9 | Oc1ccccc1/C=N/C1Oc2ccccc2CC1c1noc(-c2ccccc2O)n1 (stereo not given) | 27.5 | 325 | 100 | –
10 | COc1ccc(/C=N/C2Oc3ccccc3CC2c2noc(-c3ccc(OC)c(OC)c3)n2)cc1OC (stereo not given) | 31.5 | 158 | 100 | –
11 | Fc1ccc(/C=N/C2Oc3ccccc3CC2c2noc(-c3ccc(F)cc3)n2)cc1 (stereo not given) | – | 101 | 100 | –
12 | C(/C=C/c1ccccc1)=N/C1Oc2ccccc2CC1c1noc(/C=C/c2ccccc2)n1 (stereo not given) | 23.6 | – | – | –
13 | O=C(O)Cc1ccccc1Nc1c(Cl)cccc1Cl [DICLOFENAC] | – | – | – | 80.4
